SMILES strings stand for the structures.

The subject of series [1] is HDF human dermal normal fibroblast cells. Nature of the series: Safety profile on HDF normal fibroblasts. The class given is cell-based. Conditions: 50 µM, 24 hrs. The procedure:
(§1) MDA-231 triple-negative breast cancer cells, MCF-7 breast cancer cells, and A549 adenocarcinomic human alveolar basal epithelial cells were maintained in Roswell Park Memorial Institute media (RPMI 1640, Sigma-Aldrich, St. Louis, MO, USA) supplemented with 10% foetal bovine serum and 1% penicillin/streptomycin. HDF human dermal normal fibroblast cells were cultured in Dulbecco’s Modified Eagle Medium (DMEM, Sigma-Aldrich, Eppelheim, Germany). MCF-7 breast cancer cell line was obtained from Cell Lines Service (CLS; Eppelheim, Germany). MDA-MB-231 breast cancer cell line and A549 cancer cells were obtained from the European Collection of Authenticated Cell Cultures (ECACC; Gillingham UK). Cell lines were maintained at 37 °C in a humidified incubator with 5% CO2.
(§2) The antiproliferative activity of compounds U1–6 was assessed using the 3-[4,5-dimethylthiazol-2-yl]-2,5-diphenyl tetrazolium bromide (MTT) assay, as previously described. Cancer cell lines were seeded in 96-well flatbottom plates at a density of 10^4 cells/well for 24 h. […] DMSO was used as a negative vehicle control (1% concentration). The culture media were then removed and incubated for 2 h with fresh 200 µL culture media containing 5 mg/mL MTT. After removing the culture media and dissolving the produced formazan crystals in 100 µL DMSO, they were incubated for another 30 min at 37 °C. The produced colour was measured at 570 nm using a microplate reader (Thermo-Scientific, Vantaa, Finland). The GraphPad Prism version 9.1 software was used to generate plots of absorbance versus the compound’s concentration. Three independent repeat experiments were performed for each concentration to ensure reproducibility. IC50 values were obtained from nonlinear regression plots of absorbance versus the log concentration of the tested compounds using the GraphPad Prism software version 5.0 (San Diego, CA, USA).

Series [2] has as its system MCF-7 cells. Nature of the series: MTT cytotoxicity assay, MCF-7. The class given is cell-based. Conditions: Homo sapiens, MCF7, 48 h, mean ± SEM of three. The procedure:
as §1
as §2, with “h. The cells were subsequently treated with U1–6 compounds at a screening concentration of 50 µM and incubated at 37 °C for 48 h in a humidified incubator containing 5% CO2.” for “h.”

A further series deals with MDA-MB-231 cells. Nature of the series: MTT cytotoxicity assay, MDA-MB-231. The class given is cell-based. Conditions: Homo sapiens, 48 h, mean ± SEM of three. The procedure: as §1
as §2, with “h. The cells were subsequently treated with U1–6 compounds at a screening concentration of 50 µM and incubated at 37 °C for 48 h in a humidified incubator containing 5% CO2.” for “h.”

Another series relates to A549 cells. Nature of the series: MTT cytotoxicity assay, A549. The class given is cell-based. Conditions: Homo sapiens, 48 h, mean ± SEM of three. The procedure: as §1
as §2, with “h. The cells were subsequently treated with U1–6 compounds at a screening concentration of 50 µM and incubated at 37 °C for 48 h in a humidified incubator containing 5% CO2.” for “h.”

Series [3] concerns MCF-7 cells. Nature of the series: Annexin-V-FITC apoptosis assay. It counts as cell-based, human. Conditions: MCF-7, 24 h. The procedure: The Annexin-V-FITC apoptosis detection kit (Catalog # k101-25, Biovision, Mountain View, USA) was used for the apoptosis experiment according to previously published data. MCF-7 cells were treated with U2 compound for 24 h. The negative control was 0.1% DMSO. The cells were collected via centrifugation and resuspended in 500 µL of 1X Binding Buffer. Treated and control cells were stained with 5 µL Annexin V-FITC and 5 µL propidium iodide (PI […]) and then incubated at room temperature for 5 min in the dark. Fluorescence-activated cell sorting (FACS) was quantified via flow cytometry. Flow cytometry (excision at 488 nm; emission at 530 nm) was used to examine Annexin V-FITC binding and PI staining using the FITC signal detector and a phycoerythrin emission signal detector [71].

Series [4] deals with MCF-7 cells. Nature of the series: Cell cycle assay (PI flow cytometry). It counts as cell-based, human. Conditions: MCF-7, 24 h, at IC50 concentration. The procedure:
DMSO vehicle was used as a negative control (1% concentration). The cells were collected, centrifuged, and fixed in 70% ethanol on ice for 20 min. The fixed cells were incubated for 1 h at room temperature with staining solution ([…] propidium iodide PI, 0.05% Triton X-100, 0.1 mg/mL RNaseA). A Gallios flow cytometer (Beckman Coulter, Brea, CA, USA) was used to measure the cell cycle proportion.

Another series has as its target T1, Bcl-2 protein (Homo sapiens, UniProt P10415).
T1 construct: purchased Thermo-Scientific BMS244-3
Nature of the series: Bim ELISA binding assay (Bcl-2–Bim binding). Conditions: mean ± SEM of three, read-out: IC50 using ELISA against Bcl-2. The procedure: A Bim-binding assay (Thermo-Scientific, Catalogue No # BMS244-3, Vienna, Austria) was performed according to previously published data. PBS solution containing 0.05% Tween-20 was used to wash a streptavidin-coated 96-well plate. For immobilisation, biotinylated Bim peptide (residues 81–106) was diluted in SuperBlock blocking solution and applied to each well. After incubation, the plate was washed with 0.5% BSA in PBS with Tween-20 solution. […] After another wash, each well received anti-His antibody with horseradish peroxidase enzyme. Following incubation and washing, O-phenylenediamine and hydrogen peroxide solution were added for colour production. A plate reader (Thermo-Scientific, Vantaa, Finland) was used to measure the optical density at 450 nm. The reduction in Bim affinity was measured using a nonlinear regression curve (GraphPad Prism. Version 5.0), which was also utilized to generate the IC50 value of Bcl-2 inhibition.

T1 sequence (P10415 whole entry): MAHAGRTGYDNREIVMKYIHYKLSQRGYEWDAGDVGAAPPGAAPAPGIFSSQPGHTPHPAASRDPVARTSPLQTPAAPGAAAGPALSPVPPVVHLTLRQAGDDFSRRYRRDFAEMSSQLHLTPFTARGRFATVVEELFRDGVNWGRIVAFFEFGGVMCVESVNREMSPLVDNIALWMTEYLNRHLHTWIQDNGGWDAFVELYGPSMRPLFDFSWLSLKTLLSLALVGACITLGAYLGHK

`O=C(CSc1nnc(-c2c[nH]c3ccccc23)n1-c1ccc(F)cc1)Nc1ccc(NC(=O)CN2CCOCC2)cc1` [Compound U1, 2-(4-(4-Fluorophenyl)-5-(1H-indol-3-yl)-4H-1,2,4-triazol-3-ylthio)-N-(4-(2 morpholinoacetamido)phenyl)acetamide] returned a melting point of 208 to 210 °C. Besides, the “Inhibitory activity against HDF cells compared with the negative control” value in series [1] is recorded as “no significant change”. In the series with MCF-7 cells [2], this compound returned an IC50 of 5.05 ± 0.8 µM. This compound also had an IC50 with MDA-MB-231 cells of 20.7 ± 0.85 µM. This compound displayed an IC50 in the series on A549 cells of 13.3 ± 0.58 µM.
`COc1ccc(-n2c(SCC(=O)Nc3ccc(NC(=O)CN4CCOCC4)cc3)nnc2-c2c[nH]c3ccccc23)cc1` [Compound U2, 2-(5-(1H-Indol-3-yl)-4-(4-methoxyphenyl)-4H-1,2,4-triazol-3-ylthio)-N-(4-(2-morpholinoacetamido)phenyl)acetamide] returned a melting point of 173 to 175 °C. For the same compound, the “Inhibitory activity against HDF cells compared with the negative control” value in series [1] was “limited toxicity”. Moreover, in the series on MCF-7 cells [2], it took 0.83 ± 0.11 µM to reach half-maximal inhibition (IC50). For the same compound, in the series with MCF-7 cells [3], the “Increase in early apoptosis compared with control untreated cells” value is reported as 43 fold and the “Increase in late apoptosis compared with control untreated cells” value was 111 fold. This compound also came in with an IC50 in the series on MDA-MB-231 cells of 5.22 ± 0.55 µM. Besides, the Cell cycle effect result in the series with MCF-7 cells [4] is “cell cycle arrest at the G1/S phase”. This compound returned an IC50 in the series on A549 cells of 0.73 ± 0.07 µM. Moreover, the half-inhibitory concentration (IC50) at Bcl-2 protein came to 1.2 ± 0.02 µM.
`Cc1ccc(-n2c(SCC(=O)Nc3ccc(NC(=O)CN4CCOCC4)cc3)nnc2-c2c[nH]c3ccccc23)cc1` [Compound U3, 2-(5-(1H-Indol-3-yl)-4-methylphenyl-4H-1,2,4-triazol-3-ylthio)-N-(4-(2-morpholinoacetamido)phenyl)acetamide] returned a melting point of 250 to 252 °C. The “Inhibitory activity against HDF cells compared with the negative control” value in series [1] is “no significant change”. In the series with MCF-7 cells [2], this compound showed an IC50 of 1.17 ± 0.1 µM. This compound yielded an IC50 in the series on MDA-MB-231 cells of 4.07 ± 0.35 µM. In the series on A549 cells, this compound showed an IC50 of 2.98 ± 0.19 µM. Further, the IC50 at Bcl-2 protein turned out to be 11.1 ± 0.07 µM.
For the compound `O=C(CSc1nnc(-c2c[nH]c3ccccc23)n1-c1cccc(Cl)c1)Nc1ccc(NC(=O)CN2CCOCC2)cc1` [Compound U4, 2-(4-(3-Chlorophenyl)-5-(1H-indol-3-yl)-4H-1,2,4-triazol-3-ylthio)-N-(4-(2-morpholinoacetamido)phenyl) acetamide], the melting point is 220 to 222 °C. Further, the “Inhibitory activity against HDF cells compared with the negative control” value in series [1] is given as “no significant change”. The same compound returned an IC50 in the series with MCF-7 cells [2] of 11 ± 1.2 µM. Besides, the IC50 in the series on MDA-MB-231 cells is 28.4 ± 1.79 µM. In the series with A549 cells, the IC50 was 16.1 ± 1.4 µM.
The matching figures for `O=C(CSc1nnc(-c2c[nH]c3ccccc23)n1-c1ccc(Cl)cc1)Nc1ccc(NC(=O)CN2CCOCC2)cc1` [Compound U5, 2-(4-(4-Chlorophenyl)-5-(1H-indol-3-yl)-4H-1,2,4-triazol-3-ylthio)-N-(4-(2-morpholinoacetamido)phenyl)acetamide]: 208 to 210 °C, “no significant change”, 34.4 ± 2.2 µM, 45.1 ± 1.15 µM and 47.8 ± 3.7 µM.
`O=C(CSc1nnc(-c2c[nH]c3ccccc23)n1-c1ccc(Cl)c(Cl)c1)Nc1ccc(NC(=O)CN2CCOCC2)cc1` [Compound U6] registered a melting point of 218 to 220 °C. For the same compound, the “Inhibitory activity against HDF cells compared with the negative control” value in series [1] is “limited toxicity”. For the same compound, in the series with MCF-7 cells [2], the IC50 turned out to be 35.5 ± 2.14 µM. Half-maximal inhibition with MDA-MB-231 cells (IC50) required 79.4 ± 4.04 µM. Moreover, the IC50 with A549 cells came to 66.5 ± 0.62 µM.
On to `Cc1cc2c(C(C)C)c(O)c(O)c(C=O)c2c(O)c1-c1c(C)cc2c(C(C)C)c(O)c(O)c(C=O)c2c1O` [Gossypol, reference compound], for which the results for the IC50 in the series with MCF-7 cells [2], in the series with MDA-MB-231 cells and with A549 cells were 4.43 ± 0.54 µM, 5.5 ± 0.35 µM and 3.45 ± 0.4 µM, respectively.
